Source: patent US12539298B2, “Lobinaline N-oxides as positive allosteric modulators of the dopamine transporter with potential value in the treatment of substance abuse disorders” (University of Kentucky Research Foundation, priority 2019, dated 2026)
Read-outs that look alike come from different tables or passages of the source.

How the values were obtained:
nicAChRs [1] = assay: displacement of [3H]epibatidine from rat brain homogenates; assay type: binding
DAT [2] = target: T1, DAT (Rattus norvegicus, UniProt P23977); assay: DA clearance in striatum of anesthetized rats by in vivo electrochemistry (high-speed chronoamperometry), Example 8; set-up: DA clearance in striatum and nucleus accumbens of urethane-anesthetized SD rats; from tissue; host or cells: striatum / nucleus accumbens of living anesthetized SD rats; species or system SD rats; details: for reduction in DA clearance: striatum, 1 minute after local application (lobinaline ~250 nl 1 mM; 403, 419 ~300 nl 250 μM), FIGS. 7-9; for increase in amplitude of DA signal: ~300 nl, 250 μM local application, FIGS. 8, 9
Protocol: DA clearance in striatum and nucleus accumbens of urethane-anesthetized SD rats was monitored by in vivo electrochemistry using high-speed chrono-amperometry [see 36]. After obtaining reproducible signals for locally applied DA, vehicle or drug was applied slowly over 10-30 sec, then 30-60 sec later the next application of DA was made, with subsequent DA applications at 5-minute intervals for 25-30 min. The DA kinetic data from each animal was analyzed using FAST software (Quanteon). […] These effects were no longer seen 3-5 minutes after lobinaline ejection. They are consistent with simple competitive inhibition of the DAT by lobinaline. […] However, the lobinaline N-oxides produce different effects. Representative data from lobinaline N-oxide, at the same concentration used for lobinaline (1 mM in 250 nl medium) are shown in FIG. 6. […] This is entirely consistent with effects on synaptosomal [3H]DA uptake in vitro above, and probably represents competitive inhibition. However, after exposure to the N-oxide there is a significant and prolonged (c20 min) increase in the first order rate of decay of the DA peak. […] This increase in rate constant induced by the N-oxide varied from 20× to 2× at increasing depths in the DV gradient.
The uptake rate of locally applied DA (˜100 nl; 200 μM) was measured before and 1 minute after local application of lobinaline (˜250 nl; 1 mM), 403 (˜300 nl; 250 μM) or 419 (˜300 nl; 250 μM) (FIGS. 7, 8, and 9).

[3] = nicotine-induced locomotor activation (LMA), open field; assay type: in vivo, SD rats
Protocol: low S.C. doses of nicotine, repeated daily, cause progressive LMA related to mesolimbic DA release. This is reduced by lobeline and varenicline and therefore has predictive value as a screen for potential therapeutics in nicotine use disorder.
Methods: 2 groups of 6 adult SD rats of each sex were tested in an open-field apparatus for LMA. Each animal received a daily nicotine injection (0.5 mg/Kg SC) for 6 days with the last nicotine injection preceded (20 min) by 25 mg/Kg SC of lobinaline bi-N-oxide. Behavior was recorded and scored by an observer blind to treatment. Data was presented as line crosses/5 minutes with LMA over days 1-5 compared to LMA on day 6.

[4] = conditioned place preference (abuse potential); assay type: in vivo, SD rats
Excerpt: In conditioned place preference a chamber with distinct cues is repeatedly paired with administration of the test drug. A second chamber is repeatedly paired with a control injection. After conditioning, a test phase allows the rat to move between the chambers. If a drug is “rewarding” (i.e. has abuse potential), the rat spends more time in the drug-associated chamber. If it is aversive, the opposite result is obtained.
Methods: 6 male and 6 female SD rats were used for each drug and dose. Test drugs (5 or 25 mg/kg lobinaline, or 25 mg/Kg of lobinaline bi-N-oxide S.C) were paired with the “less preferred” compartment (standard for drugs that may be weakly reinforcing) for 20 minutes. On the next day, rats received a control (DMSO/saline) injection and were placed in the preferred chamber. After three repeated pairings (test and control), the subjects were given access to both chambers and the time spent in each compartment was recorded and scored by an observer blind to treatment. Analysis was by two way ANOVA with post hoc Bonnferoni with significance set at p<0.05. Results. Most animals spent most of the test period in the compartment originally preferred in the drug-free state, and there were no significant differences between drug and vehicle controls.

DAT [5] = target: T1, DAT; assay: [3H]DA uptake into rat striatal synaptosomes; assay type: biochemical; set-up: from tissue; host or cells: rat striatum (synaptosomes; homogenate); details: compound added 15 min before [3H]DA, 30 min at 37° C, read-out: IC50, inhibition of [3H]-DA uptake
Protocol: Lobinaline or the N-oxides were added 15 min before addition of [3H]DA. Synaptosomal uptake of [3H]DA was measured after 30 min incubation at 37° C.

[6] = Drinking in the dark model of binge drinking; assay type: in vivo, C57Bl/6J mice; details: 25 mg/Kg SC
Protocol: “Drinking in the dark” is a model for binge drinking in which C57Bl/6J mice are given limited access to alcohol during their dark cycle. With repeated daily access, mice will voluntarily drink to blood alcohol levels above 150 mg/dl. Lobeline reduces alcohol consumption in this model and it has predictive validity in that both naltrexone and acamprosate are active.
Methods: 8 male and 8 female mice were used for each of these studies and scoring was by an observer blind to treatment. Statistical analysis was by ANOVA followed by Bonnferoni posthoc with significance at p<0.05.

nicAChR = assay: 45Ca2+ entry into SHSY5Y cells; assay type: cell-based; details: SHSY5Y cells; antagonist 1 uM
Excerpt: Effects of lobinaline and nicotine on ^45Ca^2+ entry into SHSY5Y cells: nicAChR function can be evaluated semi-quantitatively in this cell line by measuring ^45Ca^2+ entry in response to nicotine. […] The lobinaline N-oxides have not yet been tested in this system.

nicAChRs [7] = assay: [3H]DA release from superfused rat striatal slices; assay type: cell-based; details: antagonist 10 μM
Protocol: Effects of lobinaline and nicotine on [3H]DA release from superfused rat striatal slices (ref 5): rat brain striatal slices were incubated with [3H]DA for 30 min at […] before transfer to superfusion chambers. […] To evaluate the role of nicAChRs, striatal slices preloaded with [3H]-DA were pretreated with the nicAChR antagonist mecamylamine (10 μM) prior to superfusion of lobinaline (100 μM). […] With the data above from SHSY5Y cells, this supports a partial agonist action of lobinaline at nicAChRs. The N-oxides have not yet been tested in this system. Lobinaline has weak agonist effects on nicAChRs, but also has as yet unquantified antagonist effects (i.e. it acts as a partial agonist at nicAChRs).

DAT [8] = target: T1, DAT; set-up: from tissue; host or cells: rat striatum (synaptosomes; homogenate); details: literature values [33], [34]; read-out: IC50, DA uptake under similar conditions; cited from earlier work
DAT [9] = target: T1, DAT; assay: dopamine uptake in striatum of isoflurane-anesthetized rats by in vivo electrochemistry, Examples 19-20; set-up: DA clearance in striatum and nucleus accumbens of urethane-anesthetized SD rats; from tissue; host or cells: striatum / nucleus accumbens of living anesthetized SD rats; species or system SD rats
Protocol: After obtaining reproducible signals for locally applied DA (50-75 nl, 200 μM) to produce a control DA peak height below 1 uM, vehicle or drug was locally applied slowly over 10-30 sec (˜500 nl 250 μM), then 60 sec later the next application of DA was performed, with subsequent DA applications at 5-min intervals for 25 min. […] The DA kinetic data from each animal were analyzed using FAST software (Quanteon, LLC, Nicholasville KY USA). […] These parameters were compared between pre- and post-drug application by one-way ANOVA with Tukey's post hoc analysis, with significance assigned at p<0.05.

aqueous solubility = assay type: physicochemical
Excerpt: Lobinaline (FIG. 1), was isolated from plant material and identified as the first-known binitrogenous plant alkaloid more than 80 years ago [27]. The applicants began to test its pharmacological activity after identifying Lobelia cardinalis as a novel source of nicAChR activity by high throughput screening in 2005 [26]. This plant species has no history of abuse, or traditional medicinal use of relevance to SUDs. […] These actions support lobinaline as a lead compound for the treatment of SUDs, particularly alcohol and nicotine use disorders. […] Lobinaline also appears to have appropriate pharmacokinetics and low toxicity. […] Conversely, this makes it a good test of the ability of target-directed evolution to generate novel inhibitors of the DAT in mutant plant cells.
Lobinaline and the “mono”-N-oxide were separated from plant and culture material by acid/base extraction, but the bi-N-oxide was derived from lobinaline using 3-chloroperbenzoic acid. All these compounds were separated by column chromatography with identity and purity confirmed by LC/MS.

T1 sequence (P23977 whole entry): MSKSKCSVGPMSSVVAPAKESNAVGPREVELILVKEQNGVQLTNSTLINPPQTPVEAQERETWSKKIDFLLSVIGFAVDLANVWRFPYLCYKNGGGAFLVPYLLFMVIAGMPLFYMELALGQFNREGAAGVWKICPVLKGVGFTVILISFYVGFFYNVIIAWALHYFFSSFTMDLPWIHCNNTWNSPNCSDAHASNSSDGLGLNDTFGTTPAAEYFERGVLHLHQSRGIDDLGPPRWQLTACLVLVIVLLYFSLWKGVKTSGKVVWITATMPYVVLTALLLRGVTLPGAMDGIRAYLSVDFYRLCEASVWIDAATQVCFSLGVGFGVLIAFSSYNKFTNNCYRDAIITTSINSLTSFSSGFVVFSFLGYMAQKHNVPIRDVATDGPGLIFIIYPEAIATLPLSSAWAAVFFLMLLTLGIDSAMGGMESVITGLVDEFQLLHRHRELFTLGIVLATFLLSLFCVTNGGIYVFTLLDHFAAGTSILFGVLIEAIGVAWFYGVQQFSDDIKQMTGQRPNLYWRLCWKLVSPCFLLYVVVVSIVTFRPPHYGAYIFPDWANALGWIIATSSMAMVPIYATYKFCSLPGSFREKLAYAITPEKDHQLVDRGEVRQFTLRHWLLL

C[N+]1([O-])CCCC2C(c3ccccc3)C(C3=[N+]([O-])CCCC3)C(c3ccccc3)CC21 (centres unmarked) [lobinaline bi-N-oxide]
Ki (nicAChRs [1]): 6500 nM | character of [3H]epibatidine displacement (nicAChRs [1]): monophasically displaced | effects on the DAT in vivo compared with mono-N-oxide (DAT [2]; rat, in vivo): less potent than the “natural” mono-N-oxide | reduction in DA clearance (DAT [2]): 40% | increase in amplitude of DA signal (DAT [2]): 4 fold | effect on nicotine-induced LMA sensitization trend ([3]; 25 mg/Kg SC 20 min before nicotine 0.5 mg/Kg SC on day 6): reversed in both sexes | individual animals showing the same trend ([3]; day 6 vs days 1-5, repeated measures): 10/12 | overt toxicity ([4]; after 3 repeated drug administrations): no signs of overt toxicity | sedation or locomotor activation ([4]; lobinaline 5 or 25 mg/kg, bi-N-oxide 25 mg/Kg S.C): no sedation or locomotor activation | conditioned place preference or aversion ([4]; lobinaline 5 or 25 mg/kg, bi-N-oxide 25 mg/Kg S.C, three pairings): neither lobinaline nor the lobinaline bi-N-oxide produced conditioned place preference or aversion | IC50 (DAT [5]): 1190 nM | food or water intake [6]: no reduction in food or water intake | overt toxicity [6]: neither compound produced overt toxicity

CNC1(C)C2CCC(C2)C1(C)C (centres unmarked) [mecamylamine]
inhibition of lobinaline-fraction-evoked 45Ca2+ entry by antagonist (nicAChR): completely inhibited | effect of antagonist pretreatment on lobinaline (100 μM)-evoked fractional [3H] release (nicAChRs [7]): significantly attenuated

CC(NC(C)(C)C)C(=O)c1cccc(Cl)c1 (centres unmarked) [bupropion]
IC50 (DAT [8]): 1900 nM

C[N+]1([O-])CCCC2C(c3ccccc3)C(C3=NCCCC3)C(c3ccccc3)CC21 (centres unmarked) [lobinaline N-oxide, lobinaline mono-N-oxide]
character of [3H]epibatidine displacement (nicAChRs [1]): more weakly with a multiphasic displacement curve | DA clearance parameters, dorsal striatum, early changes (DAT [9]; DV-3.5 to DV-5.5 mm, FIG. 12): increase in T80 and clearance rate that reflects the increase in peak amplitude, with no change in k−1 | DA peak amplitude, dorsal striatum (DAT [9]; DV-3.5 to DV-5.5 mm, up to 26 minutes after micro-injection, FIG. 12): marked and prolonged (but variable) increase | DA peak amplitude, ventral striatum (DAT [9]; DV-6 to −7.5 mm (shell of nucleus accumbens), up to 26 minutes, FIG. 13): marked and consistent increase | DA clearance parameters, ventral striatum (DAT [9]; DV-6 to −7.5 mm, FIG. 13): increase in clearance rate and k−1 at 21 and 26 minutes | DA clearance parameters, dorsal striatum, later (DAT [9]; after 11-26 minutes, FIG. 12): increase in both uptake rate and k−1 with little change in T80 | duration of increase in DA amplitude (DAT [9]; over four local applications of dopamine): at least 20 minutes | effect on DA clearance parameters (DAT [9]; relative to % control): reduced immediately after microinjection but increased later | effect on amplitude of the DA signal (DAT [9]; single local application ~500 nl 250 μM, striatum, FIGS. 10, 11): increase in amplitude | aqueous solubility (aqueous solubility): much more soluble than lobinaline | increase in amplitude of the DA signal (DAT [2]; 1 mM in 250 nl medium, FIG. 6): twofold increase | duration of increase in first order rate of decay of the DA peak (DAT [2]; after exposure, 1 mM in 250 nl): ~20 min | increase in first order rate constant of DA decay (DAT [2]; dorso-ventral position −5.5 mm, remains after 16 minutes): about three-fold | reduction in DA clearance (DAT [2]): 60% | increase in amplitude of DA signal (DAT [2]): doubling | IC50 (DAT [5]): 517 nM
